Laboratory results from article PMC12351382, “Fibrinography and thrombography (thrombodynamics-4D) in atrial fibrillation assessment of direct oral anticoagulants in geriatrics patients aged 80 years and older receiving direct oral anticoagulant therapy” (Research and Practice in Thrombosis and Haemostasis, 2025).

What was measured:
fibrin clot formation [1] = test: Thrombodynamics-4D fibrinography in plasma samples from ADAGE patients on DOACs; type: in vivo, human
Excerpt: (§1) ADAGE is an academic, prospective, observational multicenter study (NCT 02464488; for details, see Foulon-Pinto et al.). We recruited hospitalized patients from the university hospital’s geriatric department (Assistance Publique-Hôpitaux de Paris, Paris, France). […] The DOAC dose regimen was at the discretion of the physician. Exclusion criteria included any acute, unstable comorbid condition or an estimated life expectancy of a few weeks. Sampling (see below) and last DOAC intake times were recorded on a standardized request form. Sampling time points were at the discretion of the physicians over a period of 20 days following inclusion. Time points were classified according to the time elapsed from the last oral intake (T, hours) for patients receiving rivaroxaban. T1 to T4 corresponded to peak time (Tmax), and T20 to T24 corresponded to trough (Tmin). […] Physicians prospectively collected demographic, clinical, and laboratory data (including creatinine clearance [CrCl] calculated with the Cockcroft–Gault formula). The study was approved by the institutionnel Ethics Committee (Comité consultatif de protection des personnes pour la recherche biomédicale–Île-de-France-6–number 15.074bis). All participants gave written informed consent to participate in the study. Only patients for whom remaining plasma aliquots were available were included in the present study.
(§2) Tubes were sent to each centre’s laboratory within 2 hours after sampling and immediately double-centrifuged for 15 minutes at 2000 × g at 15 to 22 °C to obtain platelet-poor plasma. Plasma samples (500 μL aliquots) were stored at −80 °C prior to shipment on dry ice for central analysis (Haematology Laboratory, Hôpital Lariboisière). Plasma samples were thawed for 3 to 5 minutes in a 37 °C water bath just before testing.
(§3) The TD-4D assay was performed centrally using the Thrombodynamics analyzer system (Hemacore, Diapharma) with the TD-4D PLS dedicated kit (Hemacore, Diapharma). The system simultaneously measures spatiotemporal parameters of fibrin clot formation (fibrinography) and TG process (thrombography) in a thin layer of unstirred plasma. Briefly, 120 μL of platelet-poor plasma is added to a microcuvette containing corn trypsin inhibitor to prevent contribution of contact phase activation, then 5 μL of phospholipid solution (manufacturer’s reagent) is added. After incubation for 15 minutes at 37 °C in the Thrombodynamics device, the mixture is transferred to a second microcuvette containing calcium ions, and then immediately transferred to the measurement cuvette. Finally, the activator insert, whose surface is coated with immobilized tissue factor (100 pmol/m^2), is then transferred to the cuvette. The process of fibrin clot formation is recorded in a time-lapse video-microscopy mode using a dark-field light scattering method. Simultaneously, the system monitors TG by fluorimetry, based on the ability of thrombin to cleave a fluorogenic substrate, 7-amino-4-methylcoumarin (AMC) bound to a short amino acid sequence (Arg-Gly-Gly). The rate of AMC formation is proportional to local thrombin concentration. The microcuvette is maintained at 37 °C and is illuminated with red (625 nm) or ultra-violet (365 nm) light emitting diodes. Clot growth is detected with red light scattering, while AMC fluorescence is detected with UV. Scattered red light and fluorescence passing through the macro lens are recorded by a charge-coupled device system. Images under red and blue light are acquired once per minute. The whole analysis lasts 1 hour. The Thrombodynamics software (Hemacore, Diapharma) calculates parameters of spatiotemporal dynamics of fibrin clot formation and TG [40, 46]. […]

[2] = Plasma DOAC concentration in ADAGE patients (chromogenic anti-FXa assay for rivaroxaban and apixaban; anti-FIIa Hemoclot assay for dabigatran); type: in vivo, human; details: for DOAC concentration, median (IQR): ADAGE patients ≥80 y, reduced dose: rivaroxaban 15 mg once daily, apixaban 2.5 mg twice daily, dabigatran 110 mg twice daily; for DOAC concentration, range: ADAGE patients, reduced dose (regimens as E1)
Excerpt: as §1, §2
Dedicated calibrations and controls were used. The lower limit of quantification was 20 ng/mL for the 3 assays.

thrombin generation [3] = test: Thrombodynamics-4D thrombography in plasma samples from ADAGE patients on DOACs; type: in vivo, human; details: for ETP (endogenous thrombin potential, ETP_ATG), median (IQR) / ETP (endogenous thrombin potential, ETP_ATG), range / Thrombin peak height (Cmax_ATG), median (IQR) / Thrombin peak height (Cmax_ATG), range / Thrombography Tlag (Lag_ATG), median (IQR) / Thrombography Tlag (Lag_ATG), range / Time to peak (Tmax_ATG), median (IQR) / Time to peak (Tmax_ATG), range: ADAGE patients, reduced dose (regimens as E1)
Excerpt: as §1, §2, §3

thrombin generation [4] = test: Thrombodynamics-4D thrombography in pooled normal plasma (Cryocheck) spiked with DOACs; type: biochemical, human
Description: (§4) Frozen pooled normal plasma samples (Cryocheck-Cryopep) were spiked with increasing concentrations of DOACs (0-450 ng/mL), as previously described. […] were kindly provided by Bristol Myers Squibb/Pfizer, Bayer Healthcare, and Boehringer Ingelheim, respectively.
as §3, with “minute.” for “minute. The whole analysis lasts 1 hour. The Thrombodynamics software (Hemacore, Diapharma) calculates parameters of spatiotemporal dynamics of fibrin clot formation and TG [40, 46].”
(§5) The following fibrinography parameters were recorded (see Supplementary Table 1): (i) lag time (Tlag, minutes); (ii) initial rate of clot growth (Vi, μm/min); (iii) rate of clot growth (V, μm/min); (iv) clot size (CS, μm) measured at 30 minutes; (v) clot density (D, arbitrary units); (vi) time to spontaneous clotting (Tsp, minutes). The following thrombography parameters (at the near-activator area) were recorded (see Supplementary Table 1): (i) Tlag (minutes); (ii) time to thrombin peak (minutes); (iii) maximal thrombin concentration (ie, thrombin peak height, Cmax_ATG, AU/L); (iv) endogenous thrombin potential (ETP_ATG, AU⋅min/L); (v) stationary amplitude of moving peak of thrombin (Ast, AU/L); (vi) rate of thrombin peak propagation (μm/min; see Supplementary Videos 1–3).

fibrin clot formation [5] = test: Thrombodynamics-4D fibrinography in pooled normal plasma (Cryocheck) spiked with DOACs; type: biochemical, human; details: 0 to 1000 nM, mainly at low DOAC concentrations
Description: as §4
The TD-4D assay was performed centrally using the Thrombodynamics analyzer system (Hemacore, Diapharma) with the TD-4D PLS dedicated kit (Hemacore, Diapharma). The system simultaneously measures spatiotemporal parameters of fibrin clot formation (fibrinography) and TG process (thrombography) in a thin layer of unstirred plasma. Briefly, 120 μL of platelet-poor plasma is added to a microcuvette containing corn trypsin inhibitor to prevent contribution of contact phase activation, then 5 μL of phospholipid solution (manufacturer’s reagent) is added. […] The process of fibrin clot formation is recorded in a time-lapse video-microscopy mode using a dark-field light scattering method. […] Clot growth is detected with red light scattering, while AMC fluorescence is detected with UV. Scattered red light and fluorescence passing through the macro lens are recorded by a charge-coupled device system. […]
as §5

[6] = Tmax (peak), ADAGE patients, reduced dose (regimens as E1)
[7] = Tmin (trough), ADAGE patients, reduced dose (regimens as E1)
[8] = all ADAGE patient samples, Spearman
[9] = univariate analysis, Tmax, line marked Halving
[10] = univariate analysis, Tmin, line marked Halving
[11] = all ADAGE patient samples, any time point and dose

[H]/N=C(/N)c1ccc(NCc2nc3cc(C(=O)N(CCC(=O)O)c4ccccn4)ccc3n2C)cc1 [Dabigatran]
CS (clot size at 30 minutes), median (IQR) (fibrin clot formation [1]; [6]): 1436 (1332-1583) μm | CS (clot size at 30 minutes), range (fibrin clot formation [1]; [6]): 1273-2125 μm | D (clot density), median (IQR) (fibrin clot formation [1]; [6]): 28,810 (27,570-29,170) a.u. | D (clot density), range (fibrin clot formation [1]; [6]): 22,740-29,360 a.u. | Fibrinography Tlag (lag time), median (IQR) (fibrin clot formation [1]; [6]): 1.3 (1.2-2.0) min | Fibrinography Tlag (lag time), range (fibrin clot formation [1]; [6]): 1.0 to 3.9 min | Initial rate of clot growth (Vi), median (IQR) (fibrin clot formation [1]; [6]): 60.9 (57.8-65.6) μm/min | Initial rate of clot growth (Vi), range (fibrin clot formation [1]; [6]): 54.5-74.4 μm/min | Time to Tsp (spontaneous clotting), range (fibrin clot formation [1]; [6]): 9.8 to 58.5 min | CS (clot size at 30 minutes), median (IQR) (fibrin clot formation [1]; [7]): 1707 (1634-1904) μm | CS (clot size at 30 minutes), range (fibrin clot formation [1]; [7]): 1612-2205 μm | D (clot density), median (IQR) (fibrin clot formation [1]; [7]): 32,220 (30,160-36,290) a.u. | D (clot density), range (fibrin clot formation [1]; [7]): 26,190-39,810 a.u. | Fibrinography Tlag (lag time), median (IQR) (fibrin clot formation [1]; [7]): 1.0 (0.9-1.1) min | Fibrinography Tlag (lag time), range (fibrin clot formation [1]; [7]): 0.8 to 1.3 min | Initial rate of clot growth (Vi), median (IQR) (fibrin clot formation [1]; [7]): 70.3 (66.9-75.1) μm/min | Initial rate of clot growth (Vi), range (fibrin clot formation [1]; [7]): 57.5-79.5 μm/min | Time to Tsp (spontaneous clotting), median (IQR) (fibrin clot formation [1]; [7]): 13.7 (11.0-22.2) min | Time to Tsp (spontaneous clotting), range (fibrin clot formation [1]; [7]): 7.4 to 54.6 min | Change of CS (clot size) with increasing concentrations (fibrin clot formation [1]; all ADAGE patient samples): decreased | Association of D (clot density) with DOAC concentration (fibrin clot formation [1]; [8]): significantly associated | Relationship between time to spontaneous clot formation (Tsp) and DOAC levels (fibrin clot formation [1]; [8]): significant association | Effect of DOAC concentration at Tmax (βC.pic) on fibrinography initial velocity of clot formation (fibrin clot formation [1]; [9]): ≈ 0.01723% | Effect of DOAC concentration at Tmin (βC.res) on fibrinography initial velocity of clot formation (fibrin clot formation [1]; [10]): ≈ 0.1281% | DOAC concentration, median (IQR) ([2]; Tmax (peak)): 171 (123-280) ng/mL | DOAC concentration, range ([2]; Tmax (peak)): 79 to 665 ng/mL | DOAC concentration, median (IQR) ([2]; Tmin (trough)): 39 (20-70) ng/mL | DOAC concentration, range ([2]; Tmin (trough)): 20 to 106 ng/mL | DOAC plasma concentration, lower end of range [2, 11]: < 20 ng/mL | DOAC plasma concentration, upper end of range [2, 11]: 665 ng/mL | ETP (endogenous thrombin potential, ETP_ATG), median (IQR) (thrombin generation [3]; Tmax (peak)): 1036 (724-1501) AU⋅min/L | ETP (endogenous thrombin potential, ETP_ATG), range (thrombin generation [3]; Tmax (peak)): 80-2078 AU⋅min/L | Thrombin peak height (Cmax_ATG), median (IQR) (thrombin generation [3]; Tmax (peak)): 193 (98-243) AU/L | Thrombin peak height (Cmax_ATG), range (thrombin generation [3]; Tmax (peak)): 8-354 AU/L | Thrombography Tlag (Lag_ATG), median (IQR) (thrombin generation [3]; Tmax (peak)): 0.6 (0.4-0.8) min | Thrombography Tlag (Lag_ATG), range (thrombin generation [3]; Tmax (peak)): 0.2 to 1.5 min | Time to peak (Tmax_ATG), median (IQR) (thrombin generation [3]; Tmax (peak)): 2.6 (2.1-3.1) min | Time to peak (Tmax_ATG), range (thrombin generation [3]; Tmax (peak)): 1.6 to 4.6 min | ETP (endogenous thrombin potential, ETP_ATG), median (IQR) (thrombin generation [3]; Tmin (trough)): 1741 (1602-2290) AU⋅min/L | ETP (endogenous thrombin potential, ETP_ATG), range (thrombin generation [3]; Tmin (trough)): 1111-2715 AU⋅min/L | Thrombin peak height (Cmax_ATG), median (IQR) (thrombin generation [3]; Tmin (trough)): 349 (279-380) AU/L | Thrombin peak height (Cmax_ATG), range (thrombin generation [3]; Tmin (trough)): 168-499 AU/L | Thrombography Tlag (Lag_ATG), median (IQR) (thrombin generation [3]; Tmin (trough)): 0.2 (0.1-0.2) min | Thrombography Tlag (Lag_ATG), range (thrombin generation [3]; Tmin (trough)): 0.1 to 0.5 min | Time to peak (Tmax_ATG), median (IQR) (thrombin generation [3]; Tmin (trough)): 1.85 (1.6-2.1) min | Time to peak (Tmax_ATG), range (thrombin generation [3]; Tmin (trough)): 1.6 to 2.1 min | Change of ETP_ATG with increasing DOAC plasma concentrations (thrombin generation [3]; all ADAGE patient samples): decreased | Effect of DOAC concentration at Tmax (βC.pic) on thrombography peak height (PH) (thrombin generation [3]; [9]): ≈ 0.4838% | Effect of DOAC concentration at Tmin (βC.res) on thrombography peak height (PH) (thrombin generation [3]; [10]): ≈ 0.4447% | Change of Ast (stationary amplitude of thrombin moving peak) with increasing concentrations (thrombin generation [4]): decreased | Effect on Cmax_ATG, ETP_ATG and Ast compared with the other DOACs (thrombin generation [4]): more pronounced effect | Samples in which spontaneous clotting occurred (fibrin clot formation [5]): 33%
